Data set [1] concerns TA98, TA1535, TA1537, TA1538, TA100 and W2P2uvr. As to the kind of experiment: Ames Test (in the presence of S9). In kind it is cell-based, Salmonella typhimurium. The settings on record: for Ames Test, specific mutagenic activity: the higher the value, the higher the mutagenicity. The source says: Six Salmonella typhimuriumstrai strains, TA98, TA1535, TA1537, TA1538, TA100 and W2P2uvr were used in this experiment.

Data set [2] can be described thus: LD50, intravenous, mice. In kind it is in vivo. The settings on record: mouse, in vivo, female mice, mortalities within 1 week. The method, then: The test material was administered intravenously to 5 female mice in five increasing doses. Mortalities were recorded within 1 week, and the LD50 was determined with the aid of statistical calculations.
Data set [3] concerns the target T1, recombinant reverse transcriptase (RT) (Human immunodeficiency virus type 1 group M subtype B, UniProt P04585).
T1 construct: purchased Worthington Biochemical Corporation
In words: Reverse transcriptase inhibition assay. In kind it is biochemical, HIV-1. The method, then:
Inhibition of recombinant reverse transcriptase (RT) was performed by using commercially available Boehringer Mannheim RT assay kit (Cat. No. 1468 120) based on incorporation of digoxigenin labeled dUTP into DNA. Recombinant enzyme from HIV-1 was purchased from Worthington Biochemical Corporation. The level of anti-RT activity in the sample was determined by measurement of absorbance using an ELISA reader at 405 nm.

Data set [4] relates to HIV-1 RF. In words: Antiviral assay, Experimental Protocol I (compound added after infection). In kind it is cell-based. The note with it: Human immunodeficiency virus 1, 240 h, p24 ELISA, read-out: % Inhibition (after day 10); for inhibition at 0.3 µg/mL: 0.3 μg/ml; for inhibition at 0.6 µg/mL: 0.6 μg/ml; for inhibition at 1.25 µg/mL: 1.25 μg/ml; for inhibition at 2.5 µg/mL: 2.5 μg/ml; for inhibition at 5 µg/mL: 5 μg/ml. As to the method: HIV-1 infectivity studies were conducted in CEM, H9, MT2 cells and peripheral blood mononuclear cells (PBMC). CEM, H9 and MT2 were grown in RPMI1640 medium, 10% heat-inactivated fetal bovine serum (FBS). PBMCs were stimulated with 4 μg/ml PHA for 48 hours in RPMI1640, 10% FBS before HIV-1 infection. After HIV-1 infection, PBMCs were maintained in RPMI 1640, 10% FBS and 10 10 units/ml IL-2. The major HIV-1 isolates used were MN, IIIB, SF2, AZT-sensitive A018 and AZT-resistant A018 provided by NIH AIDS research and reference reagent program. Two major antiviral assays were developed to determine the antiviral activities of the compounds of this invention (as inhibitors).
I. The cells were infected with HIV-1 RF or IIIB at an infectivity multiplicity (moi) of 0.001 in the absence of a compound of this invention for one hour. HIV-1 infected cells were washed once with PBS, resuspended in RPMI1640, 10% FBS medium and distributed in 24-well culture dishes (5×10^5 cells per well) in the presence of a compound of this invention as inhibitor. […]
A general note: ELISA stands for enzyme-linked immunosorbent assay.

In data set [5] the test system is HIV-1 patient isolate IH. In words: Inhibition of HIV-1 patient isolate IH in PBMCs. In kind it is cell-based. The settings on record: Human immunodeficiency virus 1, PBMC, 288 h, read-out: % Inhibition (after day 12); for inhibition at 2.5 µg/mL: 2.5 μg/ml; for inhibition at 5 µg/mL: 5 μg/ml; for inhibition at 10 µg/mL: 10 μg/ml; for inhibition at 20 µg/mL: 20 μg/ml. The method, then:
(§1) The inhibitory effects of additional naphthalenesulfonic acid compounds were tested as follows: Experimental Details:
PBMCs were activated for 48 hours in conditioned medium containing PHA at a concentration of 4 μg/ml. […] The test compound, previously dissolved in a glucose solution (1 mg/ml), was then added to each of the wells to achieve the appropriate concentration. The plate was then incubated overnight (about 15 hours) after which 50 μl of cell-free HIV-1 patient isolate was added to each well. The plates were incubated for further 6 to 8 hours after which all free floating solution of virus was washed off. Washing was performed four times.
(§2) After removal of the virus, all cultures were resuspended in conditioned medium containing 10% FCS.
(§3) For control experiments virus growth was monitored in either 10% FCS or 50% FCS throughout the observation period (15 days).

Data set [6] has as its system HIV-1 patient isolate NIH 900285. In words: Inhibition of HIV-1 patient isolate NIH 900285 in PBMCs. The settings on record: Human immunodeficiency virus 1, PBMC, 288 h, 10% FCS, read-out: % Inhibition (after day 12); for inhibition at 1 µg/mL: 1.0 μg/ml; for inhibition at 2.5 µg/mL: 2.5 μg/ml; for inhibition at 5 µg/mL: 5 μg/ml. In kind it is cell-based. As to the method: as §1
PBMCs were activated for 48 hours in conditioned medium containing PHA at a concentration of 4 μg/ml. Thereafter 10^6 cells were plated in each of the 24 well plates containing 10% FCS or 50% FCS. The test compound, previously dissolved in a glucose solution (1 mg/ml), was then added to each of the wells to achieve the appropriate concentration. The plate was then incubated overnight (about 15 hours) after which 50 μl of cell-free HIV-1 patient isolate was added to each well. The plates were incubated for further 6 to 8 hours after which all free floating solution of virus was washed off. Washing was performed four times.
as §2, §3

Data set [7] deals with HIV-1 RF strain. As to the kind of experiment: SCID mouse model (SCID-hu mice infected with HIV-1). In kind it is in vivo. As to the method:
Immunodeficient CB-17 SCID (severe combined immunodeficient) mice were reconstituted with human peripheral blood cells (Scid-hu). Two weeks after engraftment, the presence of human IgG indicating the presence of functional T and B cells was confirmed. Four weeks after engraftment, SCID-hu mice were infected with 10^6 tissue culture infectious doses/ml (TCID) of RF strain by ip injection.
Twenty-four hours after infection, 8 infected mice were treated daily with Compound 6 aqueous 5% glucose solution by ip injection at a dose of 50 mg/kg for only five days. The same dose of D-(+)-glucose was injected into SCID hu mice as a control. One month after final ip dose, peritoneal cells from the mice were cocultured with human lymphocytes. After four weeks, cultures were scored for the production of virus by assaying HIV-1 p24 levels in the supernatant. […] On the other hand, 5 of the 8 control mice had cultivated virus.

Data set [8] relates to HIV-1 RF. In words: Antiviral assay, Experimental Protocol II (virus incubated with compound before cells). In kind it is cell-based. The settings on record: Human immunodeficiency virus 1, 240 h, 10% FCS, p24 ELISA, read-out: % Inhibition (after day 10); for inhibition at 1.25 µg/mL: 1.25 μg/ml; for inhibition at 2.5 µg/mL: 2.5 μg/ml; for inhibition at 5 µg/mL: 5 μg/ml.

As usually defined, the LD50 is the dose expected to kill half of the subjects tested. Usually inhibition stands for the share of the control response that was lost under treatment.

Several values for one entry are separate records, joined by “and”; a condition that tells them apart may be missing. Identical values can stand only once. Like-named read-outs stand apart in the source and are kept apart here.

Take `COc1cc(N=Nc2c(S(=O)(=O)O)cc3cc(S(=O)(=O)O)cc(NC(=O)c4cccc(Cl)c4Cl)c3c2O)c(OC)cc1N=Nc1c(S(=O)(=O)O)cc2cc(S(=O)(=O)O)cc(NC(=O)c3ccc(Cl)cc3Cl)c2c1O` [Compound 6]: the “Ames Test result” value in data set [1] is listed as “Negative”. The LD50 at 168 h in data set [2] amounted to 130 mg/kg. For the same compound, the inhibition at 0.5 µM in data set [3] worked out at 32%. Also, the inhibition at 5 µM in data set [3] (at 5.0 μM) was determined as 80%. Further, in data set [4] (10% FCS), the inhibition at 0.3 µg/mL came out at 99%, the inhibition at 0.6 µg/mL was determined as 100%, the inhibition at 1.25 µg/mL was determined as 100% and the inhibition at 2.5 µg/mL was 100%. Moreover, the inhibition at 5 µg/mL in data set [4] (10% FCS) was determined as 100%. In addition, in data set [4] (50% Human Serum), the inhibition at 0.6 µg/mL turned out to be 63%, the inhibition at 1.25 µg/mL was 64%, the inhibition at 2.5 µg/mL worked out at 99% and the inhibition at 5 µg/mL is 100%. In addition, in data set [5] (10% FCS), the inhibition at 2.5 µg/mL stood at 0%, the inhibition at 5 µg/mL was 91%, the inhibition at 10 µg/mL came to 82% and the inhibition at 20 µg/mL came out at 100%. In data set [5] (50% Human Serum), the inhibition at 2.5 µg/mL came to 13%, the inhibition at 5 µg/mL was 80%, the inhibition at 10 µg/mL turned out to be 90% and the inhibition at 20 µg/mL amounted to 100%. In addition, in data set [6], the inhibition at 1 µg/mL came to 0%, the inhibition at 2.5 µg/mL was 95% and the inhibition at 5 µg/mL stood at 99%. Also, in data set [7] (SCID-hu mice, 50 mg/kg ip daily for five days), the “detectable HIV specific p24 in mice” value was “none of the 8 mice receiving Compound 6 had any detectable HIV specific p24 above the background of the no virus control”. The “P24 Day 28” value in data set [7] (SCID-hu mice, 50 mg/kg ip daily for five days, one value per mouse, coculture supernatant, 50 mg/kg) is 46.36 pg/mL and 35.44 pg/mL and 32.61 pg/mL and 40.90 pg/mL and 34.41 pg/mL and 34.36 pg/mL and 49.46 pg/mL and 58.02 pg/mL. Moreover, the “prevention of infection of reconstituted human immune cells” value in data set [7] (treatment for 5 days) is “sufficient to prevent infection of reconstituted human immune cells in an animal model”.

For `COc1cc(N=Nc2c(S(=O)(=O)O)cc3cc(S(=O)(=O)O)cc(NC(=O)c4ccc(Cl)cc4Cl)c3c2O)c(OC)cc1N=Nc1c(S(=O)(=O)O)cc2cc(S(=O)(=O)O)cc(NC(=O)c3ccc(Cl)cc3Cl)c2c1O` [Compound 11], in data set [1], the “Ames Test result” value is “Positive” and the “Ames Test, specific mutagenic activity” value is 0.02 colony no/μg. The LD50 at 168 h in data set [2] was 160 mg/kg. In data set [3], the inhibition at 0.5 µM worked out at 30%. In data set [4] (10% FCS), the inhibition at 0.3 µg/mL came to 99%, the inhibition at 0.6 µg/mL was found to be 100%, the inhibition at 1.25 µg/mL is 100% and the inhibition at 2.5 µg/mL turned out to be 100%. In data set [4] (10% FCS), the inhibition at 5 µg/mL was found to be 100%. Further, in data set [4] (50% Human Serum), the inhibition at 0.6 µg/mL came to 55%, the inhibition at 1.25 µg/mL worked out at 87%, the inhibition at 2.5 µg/mL came to 93% and the inhibition at 5 µg/mL came to 98%. In addition, in data set [5] (10% FCS), the inhibition at 2.5 µg/mL came to 0%, the inhibition at 5 µg/mL was determined as 0%, the inhibition at 10 µg/mL is 100% and the inhibition at 20 µg/mL worked out at 100%. Moreover, in data set [5] (50% Human Serum), the inhibition at 2.5 µg/mL was 0%, the inhibition at 5 µg/mL stood at 0%, the inhibition at 10 µg/mL stood at 31% and the inhibition at 20 µg/mL is 100%.

For `COc1cc(N=Nc2c(S(=O)(=O)O)cc3cc(S(=O)(=O)O)cc(NC(=O)c4cc(Cl)cc(Cl)c4)c3c2O)c(OC)cc1N=Nc1c(S(=O)(=O)O)cc2cc(S(=O)(=O)O)cc(NC(=O)Cc3ccccc3)c2c1O` [Compound 14], in data set [1], the “Ames Test result” value was “Positive” and the “Ames Test, specific mutagenic activity” value worked out at 0.12 colony no/μg. Further, in data set [2], the LD50 at 168 h is 160 mg/kg. In data set [8], the inhibition at 1.25 µg/mL amounted to 50%, the inhibition at 2.5 µg/mL was 56% and the inhibition at 5 µg/mL was 98%.

Regarding `CCC(C)(C)c1ccc(OCC(=O)Nc2cc(S(=O)(=O)O)cc3cc(S(=O)(=O)O)c(N=Nc4cc(OC)c(N=Nc5c(S(=O)(=O)O)cc6cc(S(=O)(=O)O)cc(NC(=O)c7ccc(Cl)cc7Cl)c6c5O)cc4OC)c(O)c23)c(C(C)(C)CC)c1` [Compound 15], the “Ames Test result” value in data set [1] was “Negative”. In data set [2], this compound displayed an LD50 at 168 h of 150 mg/kg. Besides, in data set [8], the inhibition at 1.25 µg/mL was determined as 61%, the inhibition at 2.5 µg/mL worked out at 89% and the inhibition at 5 µg/mL amounted to 100%.

In the case of `CCCCCCC(=O)Nc1cc(S(=O)(=O)O)cc2cc(S(=O)(=O)O)c(N=Nc3cc(OC)c(N=Nc4c(S(=O)(=O)O)cc5cc(S(=O)(=O)O)cc(NC(=O)Cc6ccccc6)c5c4O)cc3OC)c(O)c12` [Compound 17], the “Ames Test result” value in data set [1] was “Negative”. The LD50 at 168 h in data set [2] was determined as 130 mg/kg. In addition, in data set [8], the inhibition at 1.25 µg/mL is 72%, the inhibition at 2.5 µg/mL amounted to 98% and the inhibition at 5 µg/mL came to 100%.

Turning to `CCOc1cc(N=Nc2c(S(=O)(=O)O)cc3cc(S(=O)(=O)O)cc(NC(=O)c4cccc(Cl)c4Cl)c3c2O)c(OCC)cc1N=Nc1c(S(=O)(=O)O)cc2cc(S(=O)(=O)O)cc(NC(=O)c3ccc(Cl)cc3Cl)c2c1O` [Compound 28], in data set [1], the “Ames Test result” value was “Negative”. In data set [4] (10% FCS), the inhibition at 1.25 µg/mL is 100%, the inhibition at 2.5 µg/mL worked out at 100% and the inhibition at 5 µg/mL amounted to 100%. Moreover, in data set [6], the inhibition at 1 µg/mL was found to be 0%, the inhibition at 2.5 µg/mL is 67% and the inhibition at 5 µg/mL was 98%.

The record behind these values is patent publication US5589510A, “Method for inhibiting retroviral infection by administering a naphthalenesulfonic acid compound” (priority 1995, dated 1996).
